Data set [1] can be described thus: Au(I)-mediated imine macrocyclisation (JohnPhosAu(MeCN)SbF6 2 equiv, Et4NBr 16 equiv) then in situ NaBH4 reduction to cyclic amine, HPLC isolation. The note with it: the molecule shown is the open-chain precursor, DMF, 8.0 mM, 37.0 °C, 2 steps.
Data set [2] can be described thus: Au(I)-mediated imine macrocyclisation: N-terminal amine adds (Markovnikov) to N-propargyl backbone amide alkyne; JohnPhosAu(MeCN)SbF6 2 equiv, Et4NBr 16 equiv; in situ NaBH4 10 equiv reduction 15 min for quantification. The note with it: 24-membered ring, DMF, 8.0 mM, 37.0 °C, 1.0 h.
The test system of another data set is HeLa cells. Description: Live-cell uptake, confocal microscopy. The note with it: 2.5 μM, 1 h incubation, FITC signal, repeated in duplicates. It is filed as cell-based. The procedure:
With both peptides in hand (5 and 6, Figure 7A), we investigated the binding efficiency using our fluorescence-based competitive assay.[38] […] Encouraged by these in vitro results, we explored the cellular uptake and apoptosis efficacy of the new cyclic peptide in living cells. To investigate the live cell delivery efficacy of the FITC-labeled peptides (9 and 10), both cyclic peptides were incubated for 1h with HeLa cells at different concentrations of 2.5, 5, 7, and 10 μM. […] After assessing the cellular uptake, we probed the controlled cell death or apoptosis in HeLa cells using only 2.5 μM peptides (3 and 5) and the known proteasome inhibitor MG-132 as a positive control. […] (Figure 7E).
To investigate the cellular delivery efficiency of the new cyclic peptide HeLa (CCL-2™) cells were seeded on ibidi poly-L-lysine (PLL) 8 well µ-slides in […] and were allowed to reach […]
~90% confluency over 24h. Cells were washed three times with warm PBS and serum-free DMEM (high glucose) followed by incubation for 1h with warm PBS/serum-free medium containing containing 2.5, 5, and 10 µM of fluorescently labeled cyclic peptides (9 and 10). Cells were then washed three times with warm PBS followed by adding 0.1 mg/ml heparin sulfate in PBS and incubating for 5min. […]

On to `C#CCN(CC(N)=O)C(=O)CNC(=O)[C@H](C)NC(=O)[C@H](CCCNC(=N)N)NC(=O)[C@H](Cc1ccc(O)cc1)NC(=O)[C@H](CC(C)C)NC(=O)[C@H](CCCCN)NC(=O)CNC(=O)OCC1c2ccccc2-c2ccccc21` [Fmoc-Gly-Lys-Leu-Tyr-Arg-Ala-Gly-(N-propargyl)Gly-NH2], for which the ring closure, yield over several steps in data set [1] (25-membered ring, 1.0 h) came to 61%.

Consider `C#CCN(CC(N)=O)C(=O)CNC(=O)[C@H](C)NC(=O)[C@H](CCCNC(=N)N)NC(=O)[C@H](Cc1ccc(O)cc1)NC(=O)[C@H](CC(C)C)NC(=O)CNC(=O)[C@@H](N)Cc1ccccc1` [H-Phe-Gly-Leu-Tyr-Arg-Ala-Gly-(N-propargyl)Gly-NH2], for which the ring closure, yield over several steps in data set [1] (24-membered ring, 0.5 h) was 75%.

Take `C#CCN(C(=O)CNC(=O)[C@H](C)NC(=O)[C@H](CCCNC(=N)N)NC(=O)[C@H](Cc1ccc(O)cc1)NC(=O)[C@H](CC(C)C)NC(=O)CNC(=O)[C@@H](N)Cc1ccccc1)[C@H](C(N)=O)[C@@H](C)CC` [H-Phe-Gly-Leu-Tyr-Arg-Ala-Gly-(N-propargyl)Ile-NH2]: the ring closure, yield over several steps in data set [1] (24-membered ring, 1.0 h) is 60%.

Consider `C#CCN(CC(N)=O)C(=O)[C@@H](NC(=O)[C@H](C)NC(=O)[C@H](CCCNC(=N)N)NC(=O)[C@H](Cc1ccc(O)cc1)NC(=O)[C@H](CC(C)C)NC(=O)CNC(=O)[C@@H](N)Cc1ccccc1)[C@@H](C)CC` [H-Phe-Gly-Leu-Tyr-Arg-Ala-Ile-(N-propargyl)Gly-NH2], for which the ring closure, yield over several steps in data set [1] (24-membered ring, 1.0 h) stood at 66%.

Turning to `C#CCN(CC(N)=O)C(=O)CNC(=O)[C@H](C)NC(=O)[C@H](CO)NC(=O)[C@H](Cc1ccc(O)cc1)NC(=O)[C@H](CC(C)C)NC(=O)CNC(=O)[C@@H](N)Cc1ccccc1` [H-Phe-Gly-Leu-Tyr-Ser-Ala-Gly-(N-propargyl)Gly-NH2], the ring closure, yield over several steps in data set [1] (24-membered ring, 1.0 h) was 60%.

Regarding `CC(C)C[C@@H]1NC(=O)CNC(=O)[C@H](Cc2ccccc2)NC(C)CN(CC(N)=O)C(=O)CNC(=O)[C@H](C)NC(=O)[C@H](CO)NC(=O)[C@H](Cc2ccc(O)cc2)NC1=O` (stereo partly drawn) [H-Phe-Gly-Leu-Tyr-Ser-Ala-Gly-(N-propargyl)Gly-NH2], in data set [2] (from C#CCN(CC(N)=O)C(=O)CNC(=O)[C@H](C)NC(=O)[C@H](CO)NC(=O)[C@H](Cc1ccc(O)cc1)NC(=O)[C@H](CC(C)C)NC(=O)CNC(=O)[C@@H](N)Cc1ccccc1), the ring closure, conversion by HPLC was 74%.

As for `CC(C)C[C@@H]1NC(=O)CNC(=O)[C@H](CO)NC(C)CN(CC(N)=O)C(=O)CNC(=O)[C@H](C)NC(=O)[C@H](CCCNC(=N)N)NC(=O)[C@H](Cc2ccc(O)cc2)NC1=O` (stereo partly drawn) [H-Ser-Gly-Leu-Tyr-Arg-Ala-Gly-(N-propargyl)Gly-NH2], in data set [2] (from C#CCN(CC(N)=O)C(=O)CNC(=O)[C@H](C)NC(=O)[C@H](CCCNC(=N)N)NC(=O)[C@H](Cc1ccc(O)cc1)NC(=O)[C@H](CC(C)C)NC(=O)CNC(=O)[C@@H](N)CO), the ring closure, conversion by HPLC stood at 75%.

Regarding `C#CCN(CC(N)=O)C(=O)CNC(=O)[C@H](C)NC(=O)[C@H](CCCNC(=N)N)NC(=O)[C@H](Cc1ccc(O)cc1)NC(=O)[C@H](CC(C)C)NC(=O)CNC(=O)[C@@H](N)Cc1c[nH]c2ccccc12` [H-Trp-Gly-Leu-Tyr-Arg-Ala-Gly-(N-propargyl)Gly-NH2], the ring closure, yield over several steps in data set [1] (24-membered ring, 1.0 h) came out at 74%.

On to `CC(C)C[C@@H]1NC(=O)CNC(=O)[C@H](Cc2c[nH]c3ccccc23)NC(C)CN(CC(N)=O)C(=O)CNC(=O)[C@H](C)NC(=O)[C@H](CCCNC(=N)N)NC(=O)[C@H](Cc2ccc(O)cc2)NC1=O` (stereo partly drawn) [H-Trp-Gly-Leu-Tyr-Arg-Ala-Gly-(N-propargyl)Gly-NH2], for which the ring closure, conversion by HPLC in data set [2] (from C#CCN(CC(N)=O)C(=O)CNC(=O)[C@H](C)NC(=O)[C@H](CCCNC(=N)N)NC(=O)[C@H](Cc1ccc(O)cc1)NC(=O)[C@H](CC(C)C)NC(=O)CNC(=O)[C@@H](N)Cc1c[nH]c2ccccc12) turned out to be 83%.

Turning to `CC1=NCC(=O)N[C@@H](Cc2c[nH]c3ccccc23)C(=O)N[C@@H](Cc2ccccc2)C(=O)N[C@@H](CC(=O)O)C(=O)N[C@@H](CC(=O)O)C(=O)N[C@@H](CC(C)C)C(=O)N[C@@H](Cc2ccc(O)cc2)C(=O)N[C@@H](Cc2c[nH]c3ccccc23)C(=O)N[C@@H](Cc2ccccc2)C(=O)N[C@@H](C(C)C)C(=O)N[C@@H](C)C(=O)N[C@@H](Cc2ccc(O)cc2)C(=O)N(CC(=O)N[C@@H](C)C(=O)N[C@@H](CSC2CC(=O)N(c3ccc4c(c3)C(=O)OC43c4ccc(O)cc4Oc4cc(O)ccc43)C2=O)C(N)=O)C1` (stereo partly shown) [Peptide 10], the “cellular uptake (fluorescence in cells)” value in the data set on HeLa cells is reported as “significant fluorescence”.

(Values after paper PMC8949771, “Gold(I)-Mediated Rapid Cyclization of Propargylated Peptides via Imine Formation” (Journal of the American Chemical Society, 2022).)
